Assay results from US20100029568A1, “TIGHTER-BINDING C-PEPTIDE INHIBITORS OF HIV-1 ENTRY” (priority 2007, published 2010).
Like-named read-outs stand apart in the source and are kept apart here. Ends that are not written are not given here.

Experiments:
[1] = test system: HIV-1 Res 4 (SDTV); assay type: cell-based; conditions: Table 2
[2] = test system: HIV-1 with resistance mutations at the gp41 HR1 region; test: Viral infectivity, C-peptide-resistant HIV-1 (HR1 region resistance mutations, text statements); assay type: cell-based
Procedure: All viral infectivity and cell-cell fusion experiments were performed as described in Chan, D., et. al., 1998, Proc. Natl. Acad. Sci. U.S.A. 95, 15613-15617. Briefly, the potency of C-peptides in inhibiting viral infection was determined using recombinant luciferase-expressing HIV-1 as described by Malashkevich, V. N., et. al., 1998, Proc. Natl. Acad. Sci. USA 95, 9134-9139. To produce virus, 293T cells were co-transfected with the envelope-deficient HIV-1 genome NL43LucR-E-(21) and the HXB2 gp160 expression vector pCMVHXB2 gp160 using calcium phosphate. Viral supernatants were cleared of cellular debris by low-speed centrifugation and used to infect HOS-CD4/Fusin cells (N. Landau, National Institutes of Health AIDS Reagent Program) in the presence of varying concentrations of C-peptide, ranging from 0 to 200 nM. Cells were harvested 48 hr postinfection, and luciferase activity was measured in a Wallac (Gaithersburg, Md.) AutoLumat LB953 luminometer. The IC50 is the peptide concentration that results in a 50% decrease in activity relative to control samples lacking peptide. For each peptide, data from three experiments were fit to a Langmuir equation [y=k/(1+([peptide]/IC50)], where y=luciferase activity and k is a scaling constant] to obtain the IC50 values. […]

[3] = test system: HIV-1 pseudotyped with V549E mutant Env (Res1, V38E) from strain HXB2; assay type: cell-based
Procedure: (§1) All viral infectivity and cell-cell fusion experiments were performed as described in Chan, D., et. al., 1998, Proc. Natl. Acad. Sci. U.S.A. 95, 15613-15617. Briefly, the potency of C-peptides in inhibiting viral infection was determined using recombinant luciferase-expressing HIV-1 as described by Malashkevich, V. N., et. al., 1998, Proc. Natl. Acad. Sci. USA 95, 9134-9139. To produce virus, 293T cells were co-transfected with the envelope-deficient HIV-1 genome NL43LucR-E-(21) and the HXB2 gp160 expression vector pCMVHXB2 gp160 using calcium phosphate. Viral supernatants were cleared of cellular debris by low-speed centrifugation and used to infect HOS-CD4/Fusin cells (N. Landau, National Institutes of Health AIDS Reagent Program) in the presence of varying concentrations of C-peptide, ranging from 0 to 200 nM. Cells were harvested 48 hr postinfection, and luciferase activity was measured in a Wallac (Gaithersburg, Md.) AutoLumat LB953 luminometer. The IC50 is the peptide concentration that results in a 50% decrease in activity relative to control samples lacking peptide. For each peptide, data from three experiments were fit to a Langmuir equation [y=k/(1+([peptide]/IC50)], where y=luciferase activity and k is a scaling constant] to obtain the IC50 values.
(§2) HOS-CD4-Les cells were infected with HIV-1 pseudotyped with Env from HXB2 HIV-1 strain of either the wild type sequence or one of three variant sequences that confer resistance to C-peptides. The sequences of Res1 and Res2 Env, defined in FIG. 1, contain mutations in the gp41 HR1 region that decrease C-peptide binding affinity. The sequence of Res3 contains a mutation in the gp41 HR2 region (N637K) that confers partial resistance by enhancing the rate of viral membrane fusion. The IC50 (±SEM) values represent the mean of 2 or 3 independent titrations of the indicated C-peptide.
(§3) The C37 variants generated were able to overcome resistance conferred by the HR1 region mutations. In FIG. 2, viruses pseudotyped with either wild type Env (closed squares) or V549E mutant Env (Res1, closed circles) from strain HXB2 were utilized to infect HOS-CD4-Les target cells. Infection took place in the presence and absence of C37 (FIG. 2A), C37-KYI (FIG. 2B) or (C37-GC)2 (FIG. 2C) and quantified by the expression of a luciferase-reporter construct. The IC50 values are indicated on the graph. A mutant variant of C37 with two substitutions (N637K and T6391), hereafter denoted C37-KYI, binds to a structural mimic of the gp41 HR1 region, the N-peptide known as N36 with an estimated equilibrium dissociation constant (Kd) of 40 fM, more than 20-fold lower than the Kd for wild type C37 (FIG. 2). The Hr1 and HR2 regions of three gp41 form an intermediate structure called the trimer-of-hairpins which is necessary for the viral entry process and membrane fusion with the host membrane.

[4] = test system: HIV-1 pseudotyped with wild type Env from strain HXB2 (HOS-CD4 target cells); assay type: cell-based
Procedure: as §1, §2, §3

[5] = test system: HIV-1 pseudotyped with Res 3 Env (HR2 mutant, N637K), HXB2; assay type: cell-based
Procedure: as §1, §2

[6] = test system: HIV-1 Res 2 (L33S); assay type: cell-based; conditions: Table 2
Procedure: as §1, §2

[7] = test system: HIV-1 with resistance mutations at the gp41 HR1 region; conditions: read-out: IC50 after emergence of resistance mutations; cited from earlier work
[8] = test system: HIV entry; conditions: read-out: IC50 against HIV entry; cited from earlier work
[9] = Table 2, read-out: IC50, WT HXB2
[10] = Table 1, HXB2 wild type Env, HOS-CD4-Les cells, mean of 2 or 3 titrations, read-out: IC50 (±SEM), WT Env

| Molecule | IC50 [1] [nM] | fold reduction in inhibitory potency by HR1 region resistance mutations [2] [fold] | IC50 ([3]; Table 2, read-out: IC50, Res 1 (V38E)) [nM] | IC50 [4, 9] [nM] | IC50 ([4]; read-out: IC50 against viruses pseudotyped with EnvHXB2) [nM] | IC50 ([5]; Table 2, read-out: IC50, Res 3 (N123K/L204I)) [nM] | IC50 [6] [nM] | IC50 ([3]; Table 1, HOS-CD4-Les cells, read-out: IC50 (±SEM), Res 1 Env (HR1 mutant)) [nM] | IC50 [4, 10] [nM] | inhibition of wild type virus compared to monomeric C37 ([4]; in words) | IC50 [7] [nM] | IC50 [8] [nM] | IC50 ([5]; Table 1, HOS-CD4-Les cells, read-out: IC50 (±SEM), Res 3 Env (HR2 mutant)) [nM] |
| --- | --- | --- | --- | --- | --- | --- | --- | --- | --- | --- | --- | --- | --- |
| CC[C@H](C)[C@H](NC(=O)[C@H](CC(C)C)NC(=O)[C@H](CO)NC(=O)[C@H](Cc1c[nH]cn1)NC(=O)[C@@H](NC(=O)[C@H](CC(C)C)NC(=O)[C@H](CO)NC(=O)[C@@H](NC(=O)[C@H](Cc1ccc(O)cc1)NC(=O)[C@H](CC(N)=O)NC(=O)[C@H](CC(N)=O)NC(=O)[C@@H](NC(=O)[C@H](CCC(=O)O)NC(=O)[C@H](CCCNC(=N)N)NC(=O)[C@H](CC(=O)O)NC(=O)[C@H](Cc1c[nH]c2ccccc12)NC(=O)[C@H](CCC(=O)O)NC(=O)[C@H](CCSC)NC(=O)[C@H](Cc1c[nH]c2ccccc12)NC(=O)[C@@H](NC(=O)[C@@H](NC(=O)[C@H](Cc1c[nH]cn1)NC(=O)CNC(=O)CN)[C@@H](C)O)[C@@H](C)O)[C@@H](C)CC)[C@@H](C)O)[C@@H](C)CC)C(=O)N[C@@H](CCC(=O)O)C(=O)N[C@@H](CCC(=O)O)C(=O)N[C@@H](CO)C(=O)N[C@@H](CCC(N)=O)C(=O)N[C@@H](CC(N)=O)C(=O)N[C@@H](CCC(N)=O)C(=O)N[C@@H](CCC(N)=O)C(=O)N[C@@H](CCC(=O)O)C(=O)N[C@@H](CCCCN)C(=O)N[C@@H](CC(N)=O)C(=O)N[C@@H](CCC(=O)O)C(=O)N[C@@H](CCC(N)=O)C(=O)N[C@@H](CCC(=O)O)C(=O)N[C@@H](CC(C)C)C(=O)N[C@@H](CC(C)C)C(=O)NCC(=O)NCC(=O)N[C@@H](Cc1c[nH]cn1)C(=O)N[C@@H](Cc1c[nH]cn1)C(=O)N[C@@H](Cc1c[nH]cn1)C(=O)N[C@@H](Cc1c[nH]cn1)C(=O)N[C@@H](Cc1c[nH]cn1)C(=O)N[C@@H](Cc1c[nH]cn1)C(=O)O [C37] | 53 ± 15 | 100 | 126 ± 24 | 1.3 ± 0.2 | ~1 | 7.1 ± 3.6 | 1.3 ± 0.4 | – | – | – | – | – | – |
| (C37-GC)2: Disulfide-crosslinked dimeric C37 variant containing a Cys residue at the peptide's C-terminus (added Gly-Cys) (HTTWMEWDREINNYTSLIHSLIEESQNQQEKNEQELLGC; also: disulfide-crosslinked homodimer via C-terminal Cys) | – | – | – | – | – | – | – | 0.3 | 0.3 | not significantly better | – | – | – |
| enfuvirtide | 900 ± 150 | – | – | 2.3 ± 1 | – | – | – | – | 1.7 ± 0.4 | – | > 900 | ~1 | 6.4 ± 1.5 |
